Results from a melting point compilation (Tetko et al.; mined from patent text by program, amines drawn as free bases though some values may be those of a salt).

| Compound | melting point |
| --- | --- |
| CCN1C(=O)SC(Cc2ccc(NC(=O)/C=C/c3cnn(C)c3-c3ccc(F)cc3)cc2)C1=O (centres undefined) | 214 to 215 °C |
| CC(=O)n1ncc(=O)[nH]c1=O | 150 °C |
| O=C(C1CCN(S(=O)(=O)c2ccc(Br)cc2)CC1)N1CCN(c2ccncn2)CC1 | 171 to 174 °C |
| Cc1nc(N)nc(N)c1CCCc1cc(Cl)c(Cl)cc1Cl | 215 °C |
| OCc1c(Cl)cncc1Cl | 87 to 88 °C |
| CC(=O)Nc1ccc(C#Cc2cnn3c(C(F)(F)F)cc(-c4ccc(C(F)(F)F)cc4)nc23)cn1 | 266 °C |
| COc1ccc(-c2ccc(C#N)o2)cc1C(F)(F)F | 61 to 64 °C |
| Cc1ccc(C(=O)c2cc(-c3ccc(Cl)cc3)c(N3CCOCC3)s2)cc1 | 190 °C |
| CCCCc1nc2ccn(Cc3ccccc3C(=O)OCC)c(=O)c2n1Cc1ccc(-c2ccccc2-c2nnn[nH]2)cc1 | 203 to 204 °C |
| Cn1cnc2c1c(=O)n(CCCBr)c(=O)n2C | 142 to 144 °C |
| CCCCN(CCCC)c1ccc(C=CC2=C(C#N)C(=C(C#N)C#N)OC2(C)C)c(O[Si](c2ccccc2)(c2ccccc2)C(C)(C)C)c1 | 220 to 221 °C |
| FC(F)(F)c1ccc(-c2ccc(Cl)nc2)cc1 | 98 to 101 °C |
| CN1C(=O)C(c2ccc(OC(F)F)cc2)(c2cccc(C3CC(=O)C3)c2)N=C1N (centres undefined) | 68 to 70 °C |
| N#Cc1ccc(Oc2cncc3sc(C(N)=O)cc23)cc1 | 255 to 257 °C |
| CP(C)(=O)COC(=O)c1ccc(-n2c(-c3ccccc3)cc3c2-c2ccccc2CC3)cc1 | 171 to 173 °C |
| Cc1ccc(C(Cl)=C(Cl)Cl)cn1 | 37 to 39 °C |
| Cc1cccc([N+](=O)[O-])c1C=NO | 190 to 192 °C |
| Cc1cc(C(=O)N2Cc3ccc(C(=O)N(C)C[C@@H]4OC(=O)O[C@H]4[C@H](O)[C@H]4COC(=O)O4)n3Cc3ccccc32)ccc1C1=CCCCC1 | 162 to 168 °C |
| CCCCCCCCCCCCCCCCCCOc1ccc([N+](=O)[O-])cc1[N+](=O)[O-] | 63.5 to 64 °C |
| CSCc1cc(N)ccc1O | 166 °C |
| CN(Cc1cc(C(F)(F)F)cc(C(F)(F)F)c1)C(=O)c1c(-c2ccc(F)cc2)c2ccncc2c(=O)n1C | 179 to 181 °C |
| N#Cc1ccc(N2C(=O)C=C(O)C2Cc2ccccc2)cc1Cl (centres undefined) | 188 to 189 °C |
| Cc1nn(-c2ccc(C(F)(F)F)cn2)cc1C=O | 226 to 227 °C |
| COc1cccc2[nH]c(=O)n3c(=O)[nH]nc3c12 | > 350 °C |

| Compound | melting point |
| --- | --- |
| COc1ccc(CC2N(C)CCC(O)(c3ccccc3)C2(C)C)cc1 (centres undefined) | 122 to 124 °C |
| N#Cc1ccc(Oc2ccc(F)cc2)nc1 | 120 to 121 °C |
| CCCCc1cc2cc(C(=O)NOCc3ccccc3)ccn2c1C(=O)c1ccc(OCCCN(CCCC)CCCC)cc1 | 118 to 119 °C |
| COc1ccc(CCN(C(C)=O)c2c(C)c(C)c3c(c2C)C(c2ccc(C(C)C)cc2)C(C)(C)O3)cc1 (centres undefined) | 134 to 136 °C |
| CCCCCCCCCCCCOS(=O)(=O)O | 72 °C |
| O=C(O)c1ccc(-c2ncc(-c3ccc(Cl)cc3)s2)cc1 | > 300 °C |
| CN1CCc2c(ccc3[nH]c(=O)c(=O)[nH]c23)C1 | 310 to 335 °C |
| O=C(O)c1ccc(C(c2ccc(C(=O)O)c(C(=O)O)c2)(C(F)(F)F)C(F)(F)F)cc1C(=O)O | 231 to 234 °C |
| Clc1cc2c(-c3ccccc3)coc2c2ccccc12 | 66 to 69 °C |
| NS(=O)(=O)c1ccc(-c2oc3cc(F)ccc3c(=O)c2-c2ccccc2F)cc1 | 188 °C |
| O=C(O)CCCOc1cccc(OCc2ccccc2)c1 | 76 to 77 °C |
| Fc1ccccc1-c1nc2c(s1)NCCCC2 | 115 to 116 °C |
| CN(C)c1ncc(-c2cccc(Nc3ccc(-c4ccco4)cc3[N+](=O)[O-])c2)cn1 | 160 to 161 °C |
| O=C1Cn2ncnc2-c2ccccc2N1 | 223 °C |
| C=CC(=O)Nc1c(C)cccc1C | 144 to 145 °C |
| COc1cccc(Sc2cccc([N+](=O)[O-])c2C#N)c1 | 144 to 147 °C |
| CCOC(=O)c1cn(C2CC2)c2c(C)c(F)c(F)c([N+](=O)[O-])c2c1=O | 260 to 263 °C |
| CCCCCCCCC1C=CC(/C=C/c2ccc(C(=O)O)o2)=C2N=C3CCCCC3=C21 (centres undefined) | 128 to 131 °C |
| CCOC(=O)C(=NOCC(C)C)c1csc(N)n1 | 122 to 124 °C |
| Cc1c(N)c(C#N)cc(F)c1F | 114 to 116 °C |
| CCCCCCCCCCCC(CC(O)C(C(=O)OC(C)(C)C)S(=O)c1ccc(C)cc1)OC1CCCCO1 (centres undefined) | 97 to 98 °C |
| C#CCSc1ccccc1C=CCN(O)C(N)=O | 141 to 142 °C |
| Nc1ncnc2c1c(-c1ccccc1)cn2-c1cccc(OCCCl)c1 | 166 to 168 °C |
| CCc1cc2c(c3ccc(O)cc13)OCc1cc(O)ccc1-2 | 184 to 192 °C |

Further lines, results first:

| melting point | Compound |
| --- | --- |
| 237 to 239 °C | Cc1cc(C(F)(F)F)n2nc(S(=O)(=O)Nc3c(Cl)cccc3Cl)nc2n1 |
| 221 to 224 °C | COc1cc(CNc2nc(N)n3nc(-c4ccco4)nc3n2)cc(OC)c1OC |
| 231 to 232 °C | COc1ccc(C(=O)Nc2ccccc2)cc1NS(=O)(=O)c1cccc2c(N(C)C)cccc12 |
| 37.5 to 39.5 °C | CCOC(=O)c1c(C(F)(F)F)nc(C(F)(F)Cl)c(C(=O)OC)c1OCC |
| 180 °C | COc1cc(NCC(O)CO)c([N+](=O)[O-])cc1O (centres undefined) |
| 240 to 241 °C | Cc1ccc(-n2nc(C(C)(C)C)cc2NC(=O)Nc2ccc(OCC(=O)N3CCOCC3)c3ccccc23)cc1 |
| 240 to 242 °C | CC(=O)NC[C@H]1CN(c2ccc(C3CCN(S(C)(=O)=O)CC3)c(F)c2)C(=O)O1 |
| 150 to 152 °C | COC[C@H]1CCCN1C(=O)c1cc(-c2ccccc2)c(=O)n2c1-c1sccc1C2 |
| 164 to 167 °C | CC(C)(C)c1cc(-c2nn(C3CCOC3=O)c3ncccc23)cc(C(C)(C)C)c1O (centres undefined) |
| 89 to 91 °C | CC(=O)Nc1ccccc1OCCO |
| 95 to 97 °C | CCCCOCCOc1ccc(-c2ccc(N(C)CCC)c(C=CC(=O)O)c2)cc1 |
| 102 to 103 °C | CCOC(=O)C(NC(=O)c1ccc(C)c(F)c1)C(=O)OCC |
| 65 to 66 °C | COCC1CN(c2cccnc2)C(=O)O1 (racemic) |
| 124 to 128 °C | COc1cc(OC)c(N2CCCC2)cc1/C=C/C(=O)c1ccc(S(=O)(=O)Nc2ccccn2)cc1 |
| 116 to 118 °C | COC(=O)OC1C(OCc2ccccc2)C(COCc2ccccc2)OC(C)(OCc2ccccc2)C1NC(C)=O (centres undefined) |
| 221 to 223 °C | CCOCc1nc2c(N)nc3ccccc3c2n1CC1(C(N)=O)CCCCC1 |
| 116 to 118 °C | COc1ccc(CCCOCCn2cnc3c(N)nc4ccccc4c32)cc1 |
| 170 to 173 °C | CC(=O)CC(=O)Nc1c(C(=O)c2ccccc2)[nH]c2cc(Cl)ccc12 |
| 128 to 130 °C | CCC(C)(C)OC(=O)NC(C)(Cc1c[nH]c2ccccc12)C(=O)NCCc1ccc(OC)cc1 (centres undefined) |
| 195 to 197 °C | COC(=O)C(Cc1ccc(O)cc1)NC(=O)C(Cc1ccccc1)NC(=O)c1ccc(OC)cc1 (centres undefined) |
| 93.7 to 95.7 °C | COc1ccc2ncc(C(N)=O)cc2c1 |
| 136 to 138 °C | C/C(C=O)=C\COc1cccc(O)c1 |
| 80 to 83 °C | C[C@H](OC(=O)c1ccccc1)[C@@H](O)[C@@H](CO)OCc1ccccc1Cl |
| 72 to 75 °C | COC(=O)c1cc2c(n(Cc3ccc(C#N)cc3)c1=O)CCCCCC2 |
| 222 to 225 °C | CCOC(=O)C1=C(COCc2cc(=O)[nH]c(N)n2)NC(C)=C(C(=O)OC)C1c1cccc(Cl)c1Cl (centres undefined) |
| 114 to 116 °C | CCN(CC)C(=O)Sc1cc(OC)c(OC)cc1C(=O)c1ccccc1 |

| melting point | Compound |
| --- | --- |
| 135 to 137 °C | COc1ccc(CCNC(=O)C(=O)NCCCCCCNC(=O)OC(C)(C)C)cc1OC1CCCC1 |
| 159 to 161 °C | COc1cc(OC)nc(NC(=O)NS(=O)(=O)c2ncccc2C(CCl)OC(C)=O)n1 (centres undefined) |
| 136 to 139 °C | COc1ccc(S(=O)(=O)N2CC3CCC(C3)C2)c2ccccc12 |
| 170 to 173 °C | N=C(N)NCCCCOc1ccc2c(c1)CC(CC(=O)O)C(=O)N2 (centres undefined) |
| > 240 °C | O=c1ccc(S(=O)(=O)c2oc3ccc(Cl)cc3c2O)n[nH]1 |
| 192 to 193 °C | COc1ccnc(-c2ccccc2S(=O)c2nc3cc(N)ccc3[nH]2)c1 (centres undefined) |
| 144 to 146 °C | COc1ccc2c(c1OC(C)=O)N=CC1CCCN1C2=O (centres undefined) |
| 200 °C | Cc1nc2scc(C)n2c(=O)c1CCN1CCC(C(=O)c2ccc(F)cc2)CC1 |
| 210 to 211 °C | COc1ncc(C(=O)Nc2c(F)cncc2F)cc1OC1CCCC1 |
| 149 °C | CC(C)(C)OC(=O)N[C@@H](Cc1cc(F)cc(F)c1)[C@H](O)CCl |
| 220 °C | Cn1c(C(=O)O)cc(=O)c2oc3ccccc3c(=O)c21 |
| 86 to 88 °C | Cc1cccc(CC(Cc2cccc(C)c2)C(=O)O)c1 |
| 213 to 215 °C | CC(=Cc1cn(-c2cccnc2)c2ccccc12)C(=O)O |
| 134 to 135 °C | CCCc1c(OCc2cccn3c(=O)c(CC(=O)OCC)cnc23)ccc(C(C)=O)c1O |
| 245 to 246 °C | Nc1nc2ccccc2c2c1nc(CCO)n2CCCNC(=O)c1cc2ccccc2cn1 |
| > 300 °C | NC(=O)C1CCN(C(=O)c2ccc(NCc3cnc4nc(N)nc(N)c4n3)cc2)CC1 |
| 95 to 96 °C | Cc1ccc(-c2nc(COc3ccc(CCCn4ccnc4)cc3Cl)co2)s1 |
| 166 °C | Cc1cn(-c2cccc(C(=O)CC(=O)Nc3cc(C#Cc4ccc(F)cc4)ccc3NC(=O)OC(C)(C)C)c2)cn1 |
| 143 to 145 °C | C=CCc1ccc(C(NC(C)=O)C(=O)OC)cc1O (centres undefined) |
| 48 to 48.5 °C | CCOC(=O)c1cc(C)c(C(=O)OCC)n1C |
| 143 to 146 °C | COc1ccc2nc(Nc3cc(C)cs3)[nH]c2c1 |
| 180 °C | COc1ccc(-c2nc(-c3nccn3Cc3ccccc3)[nH]c2-c2ccc(OC)cc2)cc1 |
| 113 to 114 °C | C=C1CCC(C(=O)OC)Cc2onc(-c3ccc(Cl)cc3)c21 (centres undefined) |
| 222 to 223 °C | COC(=O)c1ccccc1NC(=O)c1c(-c2ccccc2)c(-c2ccc(F)cc2)c(C=O)n1C(C)C |
| 61 to 62 °C | Cc1cccc(CCOc2ccc([N+](=O)[O-])cc2)n1 |
